Assay results from PMC12040169 (PLOS Biology, 2025).

What was measured:
in vitro [1] = test: in vitro; design: Viability of infected HeLa host cells, resazurin conversion, bulk resorufin fluorescence relative to DMSO; conditions: human, hela cells; bulk resorufin, mean of 2
[2] = tested on: T1, CTL2-GFP (C. trachomatis L2/434/Bu, GFP-expressing); test: microbe, parasite or virus in culture; design: Intracellular C. trachomatis growth in HeLa cells, bulk GFP fluorescence relative to DMSO; conditions: Chlamydia trachomatis, HeLa, 28.5 h; bulk GFP, mean of 2; read-out: % of control remaining
T1 construct: L2/434/Bu, GFP-expressing
Procedure: MICs were calculated as described above.

in vitro [3] = conditions: human, hela cells, % viability
[4] = tested on: T2, C. trachomatis L2/434/Bu expressing GFP (CTL2-GFP); test: microbe, parasite or virus in culture; design: C. trachomatis total inclusion area by high-content imaging, normalised to DMSO; conditions: Chlamydia trachomatis, HeLa, 28.5 h; total inclusion area; read-out: % of control remaining
T2 construct: L2/434/Bu GFP intracellular growth in HeLa cells
Summary of the method: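 First, bulk GFP and resorufin signals were measured in compound-treated infected cultures. Cells were next fixed and stained with Hoechst. Finally, high-content imaging quantified chlamydial inclusions (area, number) and host nuclei, and MICs were calculated.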

Row | Compound | viability at 28.5 h, 1 µM (in vitro [1]) | viability at 28.5 h, 5 µM (in vitro [1]) | viability at 28.5 h, 10 µM (in vitro [1]) | activity at 1 µM [2] | activity at 5 µM [2] | activity at 10 µM [2] | viability at 28.5 h, 10 µM (in vitro [3]) | activity at 1 µM [4] | activity at 5 µM [4] | activity at 10 µM [4]
1 | O=C(Nc1cccc2c(NC(=O)N3CCCCC3)cccc12)N1CCCCC1 [CBK010775] | 89.2% | 88.8% | 84.5% | 130% | 67.1% | 38.3% | 109% | 97.8% | 43.6% | 23.8%
2 | NCc1ccc2cccc(O)c2n1 [CBK001376T] | 109% | 112% | 110% | 80.5% | 19.7% | 1.06% | 85.6% | 66.3% | 31.4% | 6.97%
3 | CC(=O)NC[C@H]1CN(c2ccc(-c3nnc(CCC#N)s3)c(F)c2)C(=O)O1 [CBK017926] | 93.8% | 92% | 95.7% | 19.4% | 2.09% | 3.05% | 87.1% | 15.4% | 0.206% | 0.193%
4 | O=C(Nc1cccc(OC(=O)c2cc(S(=O)(=O)N3CCCCC3)ccc2Cl)c1)c1ccco1 [CBK262186] | 101% | 96.6% | 100% | 110% | 106% | 76.3% | 110% | 101% | 85.8% | 33.3%
5 | NCCCNc1ncc(C(=O)NCc2ccccc2)c(NCC2CCCCC2)n1 [CBK215386] | 113% | 116% | 96.6% | 97.9% | 89.2% | 32.4% | 103% | 95.7% | 73.1% | 19.8%
6 | O=C(Nc1cc(Cl)nc(Cl)c1)N(Cc1ccc2ccccc2c1)CC1CCNCC1 [CBK049773] | 95.5% | 95.6% | 96.4% | 131% | 84.2% | 61.7% | 105% | 120% | 75.2% | 44.5%
7 | O=C(CSc1nnc(-c2cccnc2)o1)c1ccccc1 [CBK068446] | 112% | 111% | 114% | 74.8% | 13.2% | 1.98% | 139% | 67.4% | 24% | 6.22%
8 | COc1cc(CN2CCNCC2)c2ccn(S(=O)(=O)c3cccc(Cl)c3C)c2c1 [CBK144484T] | 104% | 95.7% | 102% | 113% | 109% | 57.5% | 87.1% | 90.6% | 59.5% | 23.3%
9 | O=C(N/N=C/c1c(O)ccc2ccccc12)c1ccc(CO)nc1 [CBK261375] | 89.8% | 84.2% | 76.9% | 130% | 69% | 32.3% | 84.7% | 112% | 72.5% | 32.1%
10 | Cc1ccc(Cn2c(=N)n(CC(=O)c3cc(C(C)(C)C)c(O)c(C(C)(C)C)c3)c3ccccc32)cc1 [CBK262458B] | 92.1% | 96.7% | 101% | 127% | 56.5% | 91.9% | 82.6% | 99.9% | 36.5% | 52%
11 | COc1ccc([C@H]2CN(Cc3ccccc3)[C@@H]3CCN(C(=O)Cc4ccsc4)C[C@H]23)cc1 [CBK285551] | 89.3% | 93.6% | 93% | 151% | 107% | 36.7% | – | 148% | 87.9% | 48.8%
12 | COc1ccc(OC)c(Nc2nc(NCC3CCCO3)c3ccccc3n2)c1 (stereo not shown) [CBK268403C] | 97.5% | 96.9% | 99.1% | 127% | 105% | 26.6% | – | 73.4% | 61% | 10.2%
13 | CCCN(CCC)CCc1cccc2c1CCN2C(=O)c1cc2ccccc2s1 [CBK017871C] | 96.8% | 96.9% | 97.3% | 42.3% | 18.2% | 9.45% | – | 58% | 26.8% | 2.13%
14 | CCc1ccc(S(=O)(=O)Nc2cc(SCC(=O)O)c(O)c3ccccc23)cc1 [CBK265580] | 95.6% | 88.8% | 81.9% | 97.7% | 47% | 37.3% | – | 84.1% | 15.3% | 7.41%
15 | COc1ccc([C@H]2CN(Cc3ccccc3)[C@@H]3CCN(C(=O)Cc4ccccc4)C[C@H]23)cc1 [CBK286285] | 93.8% | 97.6% | 104% | 130% | 111% | 49.2% | – | 109% | 95.8% | 41.4%
16 | COc1ccc(CC(=O)N2CCCC(c3nc(C)c4c(n3)N(CC3CC3)CCC4)C2)cc1 (stereo not shown) [CBK286228] | 102% | 97.8% | 97% | 130% | 39.3% | 5.11% | – | 88.7% | 46.6% | 3.42%
17 | Cc1cccc(N(C)S(=O)(=O)c2ccc(N3CCCNCC3)c3ccccc23)c1C [CBK004430C] | 89.7% | 84.9% | 88.8% | 142% | 95.8% | 45.1% | – | 121% | 56.7% | 8.36%
18 | Cn1cncc1C(=O)NCc1ccccc1 [CBK200199] | 114% | 107% | 104% | 95.8% | 109% | 110% | – | 111% | 106% | 69.3%
19 | O=C(NCC1CC1)c1ccc(N2CCN(C(=O)c3ccccc3C(F)(F)F)CC2)nn1 [CBK153220] | 104% | 93% | 95.9% | 149% | 123% | 138% | – | 146% | 79.1% | 94.4%
20 | COc1ccc(Br)cc1C1CC(=O)Nc2c(-c3cccc(F)c3)csc21 (stereo not shown) [CBK294442] | 96.8% | 96.5% | 95.7% | 132% | 65.3% | 59.3% | – | 118% | 29.4% | 66.4%
21 | CCC(=O)N1CCCc2cc(C(O)CN3CCN(c4ccc(F)cc4)CC3)ccc21 (stereo not shown) [CBK286480] | 93% | 84% | 90.3% | 116% | 62% | 10.5% | – | 104% | 58.2% | 7.99%
22 | OC(CN1CCOCC1)Cn1c(-c2ccccc2)c(-c2ccccc2)c2ccc3ccccc3c21 (stereo not shown) [CBK263996G] | 90.5% | 92.4% | 89.5% | 113% | 96.6% | 91.1% | – | 101% | 73.2% | 61.6%
23 | c1ccc(-c2nc3cc4ccccc4cc3[nH]2)nc1 [CBK000130] | 99.1% | 95.7% | 90.5% | 133% | 40.2% | 18.3% | – | 98.2% | 31.5% | 14.1%
24 | CN(C)CCCNC(=O)c1ccc([N+](=O)[O-])o1 [CBK262118] | 97.2% | 98.6% | 104% | 133% | 80.5% | 42.1% | – | 104% | 60.7% | 34.6%
